Three compounds from paper PMC11199504, “New hemisynthetic derivatives of sphaeropsidin phytotoxins triggering severe endoplasmic reticulum swelling in cancer cells” (Scientific Reports, 2024) can be followed below.

Experiment [1] has as its target caspase-like activity of the proteasome (Homo sapiens, UniProt P28072). The experiment can be described thus: Cellular proteasomal caspase-like activity. It is filed as cell-based. Here is the method:
The chemotrypsin-like, trypsin-like and caspase-like activities of the proteasome were evaluated in cells with the G8660, G8861 and G8761 kits respectively according to the manufacturer’s instructions (Promega, USA). Briefly, the assays are based on the use of short amino-acid sequences coupled with luciferin and that can be specifically cleaved by each catalytic unit of the proteasomal complex. For this purpose, cells were seeded in 96 well plates 24 h before their treatment with 1 (5 µM), 13 (1 µM) for 6 h or with the positive control MG132 (1 µM) for 24 h. At the end of the treatments, cells were washed three times with PBS and permeabilized with digitonin (0.5 mg/mL; 50 µL per well) under shaking for 10 min. Then, 50 µL of a mixture of the substrate of interest and luciferase were added for 15 min under slow shaking. Luminescence levels quantified with the Active-Glo LR-100 luminometer (DSLabs, Suisse) were normalized according the number of viable cells evaluated in parallel in the same conditions by means of MTT assay.

The test system of experiment [2] is SKMEL-28. The experiment is described as follows: MTT colorimetric assay, SKMEL-28. In kind it is cell-based. The conditions noted are these: Homo sapiens, SK-MEL-28; 72 h treatment; mean ± SEM; resistant to apoptosis; read-out: IC50 determined by MTT assays, SKMEL-28. The method, boiled down: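 Cell lines cultured in RPMI1640 with 10% heat-inactivated FBS. Cells seeded 24 h before 72 h compound exposure over 10 nM to 100 µM, sextuplicate wells. Viability read by MTT colorimetric assay.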
In general terms: Formazan colour is commonly taken as a measure of viable cells.

The test system of experiment [3] is KB-3-1. The experiment is described as follows: MTT assay, KB-3-1 (parental sensitive). The conditions noted are these: Homo sapiens, KB 3-1, 72 h, read-out: IC50 determined by MTT assays, KB-3-1. It is filed as cell-based. An excerpt:
Cancer cell lines were obtained from either the European Collection of Cell Cultures (ECACC; Salisbury, UK) or the American Type Culture Collection (ATCC; Manassas, VA). The two glioma cell lines were the U373 (ECACC code 08061901) and Hs683 (ATCC HTB-138) cell lines. The carcinoma cell lines were the A549 non-small cell carcinoma cell line (ATCC code CCL 185) and the MCF-7 mammary breast carcinoma cell line (ATCC code HTB-22). The melanoma cell lines were the mouse B16F10 cells (ATCC code CRL-6475) and the human SKMEL-28 cells (ATCC code HTB-72). The ovarian cancer cell line A2780 and its cisplatin-resistant subline A2780cis were obtained from Sigma-Aldrich (St. Louis, MO, USA). Colon cancer HCT116 cells were obtained from ATCC (CCL-247) and the oxaliplatin-resistant subline HCT116/OxR established in the W. Berger lab[59]. The HeLa cell derivative KB-3-1 and the colchicine-selected, highly ABCB1-overexpressing subline KB-C-1 were generously donated by Dr. D. W. Shen, Bethesda, MD. RKOp53wt colon cancer cells together with the RKOp53KO (homozygous knock-out) subline[60] were generously provided by Dr. Vogelstein from John Hopkins University, Baltimore. The correct origin of all cell models was confirmed by STR during performance of the experiments. All cell lines were cultured in RPMI1640 culture medium supplemented with 10% heat-inactivated fetal bovine serum, 2% L-glutamine (0.6 mg/mL), 2% penicillin/streptomycin (200 IU/mL and 200 μg/mL) and 0.1 mg/mL gentamicin.
The MTT (3-(4,5-dimethylthiazol-2-yl)-2,5-diphenyl tetrazolium bromide) colorimetric assay has been conducted as described previously. Briefly, cells were seeded 24 h before their treatment with each compound for a period of 72 h. The concentrations tested ranged from 10 nM to 100 µM. Each assay was conducted in sextuplicates. The number of independent experiments is mentioned in the legend of the tables.
SI Table 1: IC50 determined by MTT assays. Mean concentration (± standard deviation) in µM required to
reduce the viability of cells by 50% after a 72 h treatment relative to the control.
Parental sensitive models Drug-resistant models

For experiment [4], the system named is SKMEL-28 melanoma and U373 glioblastoma cells. The experiment is described as follows: Morphological evaluation by phase contrast microscopy / videomicroscopy. It is filed as cell-based, human. Here is the method:
For the morphological evaluation of the effects induced by compounds 1 and 13, 6 × 10^4 cells were seeded on glass coverslips placed in 6 well plates a minimum 24 h before their treatment. At the end of the incubation period with the treatment, coverslips were rinsed once in PBS buffer and directly mounted on slides to allow visualization of the cell with an Axio.Imager.M2 microscope (G X40 and G X100).

Experiment [5] has as its system SK-MEL-28 human melanoma and U373 glioblastoma cells. The experiment can be described thus: ER swelling / vacuole origin (CellLight ER-GFP, brightfield, TEM). In kind it is cell-based. The conditions noted are these: SK-MEL-28 and U373 cells. An excerpt:
To decipher the origin of vacuoles, fluorescent probes staining different cellular compartments were used: the lysosomal Red DND-99 LysoTracker®, the glibenclamide Red ER tracker®, the green FM MitoTracker® that were all purchased from Lifes Technologies (Invitrogen, Belgium) and used according to manufacturer’s instructions. The CellLight ER-GFP (Thermofisher, Belgium) staining of the ER is based on the transfection of a plasmid coding for a fusion protein made of GFP fused to the ER signal sequence of calreticulin and the KDEL ER retention signal. Briefly, 6 × 10^4 cells were seeded on glass coverslips in 6 well plates. After a minimum of 24 h, cells were treated or not with the compounds of interest. Note that concentration and duration of the treatment were determined separately for each compound prior to the experiment on the basis of the apparition of marked morphological changes in phase contrast microscopy. Sixteen hours before the end of the experiment, 4 µL/well of the reagent were added to allow transfection and expression of the GFP-fused protein by the cells. Coverslips were then washed twice in PBS and mounted on slides without fixation step to take captions with the Axio.Imager.M2 microscope (Carl Zeiss, Belgium). To evaluate the cellular distribution of 13, the Axio.Imager.M2 was specifically equipped with an M340L4 excitation source (Thorlabs) and the pseudoconfocal Zeiss ZEN deconvolution system kindly provided for demo by Carl Zeiss (Belgium) to allow direct visualization of the compound 13 itself thanks to its intrinsic fluorescent properties.
For TEM, cells were fixed with glutaraldehyde 2.5% (EM grade, Electron Microscopy Sciences, EMS) at 4 °C overnight, washed tree times in cacodylate buffer (pH 7.4) and postfixed 1 h at room temperature in 1% OsO4, (EMS), 1.5% potassium ferrocyanide (Sigma-Aldrich) in 0.15 M cacodylate buffer. This was immediately followed by a second incubation in 1% OsO4 for 1 h at room temperature. After washing in distilled water, samples were stained with 1% uranyl acetate (EMS) and serially dehydrated in increasing ethanol concentrations. Samples were then embedded in epoxy resin (Agar 100 resin, Agar Scientific Ltd) and left to polymerize for 2 days at 60 °C. Ultrathin sections (50–70 nm thick) were collected with a Leica UC6 ultra-microtome on formvar-carbon-coated copper grids and further stained with uranyl acetate and lead citrate by standard procedures. Observations were made on a Tecnai 10 transmission electron microscope (FEI) and images were captured with a Veleta camera and processed with SIS iTEM software (Olympus).

Sequence of caspase-like activity of the proteasome (P28072 whole entry): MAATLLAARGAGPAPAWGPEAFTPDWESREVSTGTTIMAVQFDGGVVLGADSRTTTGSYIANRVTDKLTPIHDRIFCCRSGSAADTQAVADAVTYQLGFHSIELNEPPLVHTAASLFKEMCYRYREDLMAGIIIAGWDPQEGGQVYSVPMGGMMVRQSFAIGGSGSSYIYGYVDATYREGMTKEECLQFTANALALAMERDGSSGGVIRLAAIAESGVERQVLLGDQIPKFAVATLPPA

For `C=C[C@]1(C)C=C2C(=O)[C@@]3(O)OC(=O)[C@@]4(CCCC(C)(C)[C@H]34)[C@@]2(O)CC1` [Compound 1, sphaeropsidin A, reference compound], in experiment [1] (1 at 5 µM, 6 h), the “effect on caspase-like proteasomal activity” value is recorded as “stimulate caspase-like activity”. The IC50 is 2.32 ± 0.15 µM in experiment [2] and 5.4 ± 1 µM in experiment [3]. For the same compound, the “time to cellular shrinkage” value in experiment [4] (SKMEL-28 and U373) was at most 6 h.

`CC1(C=CCCCc2ccc3ccc4cccc5ccc2c3c45)C=C2C(=O)C3(O)OC(=O)C4(CCCC(C)(C)C34)C2(O)CC1` (stereo not drawn) [Compound 13] showed an inhibition at 1 µM in experiment [1] (13 at 1 µM, 6 h of treatment, both SKMEL-28 and U373) of over 60%. The results for the IC50 in experiment [2] and in experiment [3] were 0.31 ± 0.01 µM and 1.9 ± 0.05 µM, respectively. The “time to severe vacuolization” value in experiment [4] (SKMEL-28 and U373 respectively) fell in the range of 15 to 24 h. Also, the “ER swelling / ER-derived vacuolization” value in experiment [5] is on record as “severe swelling of the ER”.

Turning to `CC1(C=CCCCc2ccc3ccc4cccc5ccc2c3c45)C=C2C(O)C3(O)OC(=O)C4(CCCC(C)(C)C34)C2(O)CC1` (stereo not drawn) [Compound 16], the concentration for half-maximal inhibition (IC50) is 7.24 ± 0.07 µM in experiment [2] and 13.8 ± 1.4 µM in experiment [3]. For the same compound, the “ER swelling / ER-derived vacuolization” value in experiment [5] is recorded as “severe ER-swelling”.

What is called IC50 is the point on the concentration scale where inhibition reaches its midpoint. Usually inhibition stands for the share of the control response that was lost under treatment.
